Assay results reported in PMC3714282, “Pharmacometabolomics of Response to Sertraline and to Placebo in Major Depressive Disorder – Possible Role for Methoxyindole Pathway” (PLoS ONE, 2013).

System: serum metabolites (tryptophan, tyrosine, purine pathways, antioxidants)
Test: LCECA metabolomic profiling of serum: change from baseline at week 1 and week 4 (all, responders, non-responders)
Assay type: in vivo, human
Source text: Study participants were outpatients, 18–65 years of age, from various clinical sites across the United States. […] A complete description of the inclusion and exclusion used in this study can be found in Table S1. The study protocol was developed in accordance with the principles of the Declaration of Helsinki. All patients provided written informed consent. The study was sponsored and monitored by Pfizer, Inc. Each site's institutional review board approved and oversaw the study. The primary outcome measure was the HAMD17, used to assess depressive symptom severity. Measures were gathered at baseline, and weeks 1 and 4 of treatment at the patient's visits. Serum samples were collected using standard protocol at baseline, week 1 and week 4 of treatment at the clinic visits. Whole blood was collected in serum collection tubes and inverted 5–8 times. Serum samples were allowed to clot at room temperature for 60 minutes and then centrifuged at 1,300×g for 15 minutes. Following centrifugation supernatant was frozen at −80°C until analysis.
Samples were analyzed using a liquid chromatography electrochemical array (LCECA) platform that has been extensively validated and used in our prior studies in neurodegenerative and psychiatric disorders [30]–[34]. The method includes multiple compounds from the tyrosine, tryptophan, sulfur amino acids and purine pathways, and markers of oxidative stress and protection (for the list of metabolites and abbreviations see Table 1). Levels of 5-Methoxytryptamine (5-MTPM) were measured using a gas chromatography time-of-flight-mass spectrometry (GCTOF-MS) platform. Samples were prepared for analysis as previously described. During the sample preparation, pools were created from equal volumes of subaliquots of all samples. Concentrations of metabolites in the individual samples were expressed as a percentage of the concentration of those metabolites in the averaged pool.
Data preprocessing: We first removed the metabolites that have more than 40% missing values. […] Principal components analysis (PCA; SIMCA-P+12.0) was used to identify outliers. The analysis was performed for each time point. […] Subjects with ≥3 standard deviations away from the center of data cloud within two principal components (PC's) scores scatter plot were considered outliers and were removed from further analysis.
These analyses were conducted separately for the sertraline and placebo groups. Between groups t-tests were used to compare baseline to one week and baseline to four week change scores between the sertraline and placebo groups.
Signatures of response to sertraline and placebo were identified by using paired t-tests to compare week 4 metabolite levels to baseline metabolite levels in the responders and non-responders to therapy. […] These analyses were also performed to evaluate changes in ratios of individual metabolites within (e.g., 5-HT/5-HTP) and between branches of tryptophan pathway (e.g., KYN/MEL).

[1] = after four week of treatment, non-responders
[2] = after four week of treatment, responders
[3] = after one week of treatment, non-responders
[4] = serum, four weeks, non-responders to sertraline
[5] = serum, four weeks, poor response to sertraline
[6] = serum, four weeks, responders to sertraline
[7] = serum, log-transformed concentration, after four weeks, sertraline group

CN[C@H]1CC[C@@H](c2ccc(Cl)c(Cl)c2)c2ccccc21 [Sertraline, sertraline] was tested, and the “Change of 3-OHKY (average change of log-transformed concentration)” value [1] was 0.013, the “Change of 3-OMD (average change of log-transformed concentration)” value [1] was -0.048 and the “Change of 4-HBAC (average change of log-transformed concentration)” value [1] was 0.19. For the same compound, the “Change of 4-HPAC (average change of log-transformed concentration)” value [1] was 0.14, the “Change of 4-HPLA (average change of log-transformed concentration)” value [1] was 0.11 and the “Change of 5-HIAA (average change of log-transformed concentration)” value [1] was -0.077. For the same compound, the “Change of 5-HT (average change of log-transformed concentration)” value [1] was -1.6, the “Change of 5-HTP (average change of log-transformed concentration)” value [1] was 0.24 and the “Change of 5-MTPOL (average change of log-transformed concentration)” value [1] was 0.093. The “Change of 7-MXAN (average change of log-transformed concentration)” value [1] was 0.56, the “Change of ATOCO (average change of log-transformed concentration)” value [1] was 0.47 and the “Change of CYS (average change of log-transformed concentration)” value [1] was -0.014. For the same compound, the “Change of DIOHMAL (average change of log-transformed concentration)” value [1] was 0.25, the “Change of DOPAC (average change of log-transformed concentration)” value [1] was -0.099 and the “Change of DTOCO (average change of log-transformed concentration)” value [1] was 0.52. The “Change of GR (average change of log-transformed concentration)” value [1] was 0.31, the “Change of GRMP (average change of log-transformed concentration)” value [1] was -0.16 and the “Change of GSH (average change of log-transformed concentration)” value [1] was -0.084. For the same compound, the “Change of HGA (average change of log-transformed concentration)” value [1] was 0.63, the “Change of HVA (average change of log-transformed concentration)” value [1] was 0.085 and the “Change of HX (average change of log-transformed concentration)” value [1] was 0.014. The “Change of KYN (average change of log-transformed concentration)” value [1] was 0.066, the “Change of LD (average change of log-transformed concentration)” value [1] was 0.35 and the “Change of MEL (average change of log-transformed concentration)” value [1] was 0.26. For the same compound, the “Change of METH (average change of log-transformed concentration)” value [1] was 0.3, the “Change of MHPG (average change of log-transformed concentration)” value [1] was -0.28 and the “Change of NA-5-HT (average change of log-transformed concentration)” value [1] was 0.0044. The “Change of TRP (average change of log-transformed concentration)” value [1] was 0.11, the “Change of TRPOL (average change of log-transformed concentration)” value [1] was 0.053 and the “Change of TYR (average change of log-transformed concentration)” value [1] was -0.11. For the same compound, the “Change of UA (average change of log-transformed concentration)” value [1] was -0.095, the “Change of VMA (average change of log-transformed concentration)” value [1] was 0.058 and the “Change of XAN (average change of log-transformed concentration)” value [1] was -0.19. For the same compound, the “Change of XANTH (average change of log-transformed concentration)” value [1] was 0.098, the “Change of 3-OHKY (average change of log-transformed concentration)” value [2] was 0.071 and the “Change of 3-OMD (average change of log-transformed concentration)” value [2] was 0.19. The “Change of 4-HBAC (average change of log-transformed concentration)” value [2] was 0.07, the “Change of 4-HPAC (average change of log-transformed concentration)” value [2] was 0.37 and the “Change of 4-HPLA (average change of log-transformed concentration)” value [2] was 0.14. The “Change of 5-HIAA (average change of log-transformed concentration)” value [2] was -0.046, the “Change of 5-HT (average change of log-transformed concentration)” value [2] was -2.2 and the “Change of 5-HTP (average change of log-transformed concentration)” value [2] was 0.014. The “Change of 5-MTPOL (average change of log-transformed concentration)” value [2] was 0.17, the “Change of 7-MXAN (average change of log-transformed concentration)” value [2] was -0.32 and the “Change of ATOCO (average change of log-transformed concentration)” value [2] was 0.76. The “Change of CYS (average change of log-transformed concentration)” value [2] was 0.0094, the “Change of DIOHMAL (average change of log-transformed concentration)” value [2] was 0.47 and the “Change of DOPAC (average change of log-transformed concentration)” value [2] was 0.058. The “Change of DTOCO (average change of log-transformed concentration)” value [2] was 0.88, the “Change of GR (average change of log-transformed concentration)” value [2] was -0.26 and the “Change of GRMP (average change of log-transformed concentration)” value [2] was 0.23. The “Change of GSH (average change of log-transformed concentration)” value [2] was 0.096, the “Change of HGA (average change of log-transformed concentration)” value [2] was 0.21 and the “Change of HVA (average change of log-transformed concentration)” value [2] was 0.12. The “Change of HX (average change of log-transformed concentration)” value [2] was -0.022, the “Change of KYN (average change of log-transformed concentration)” value [2] was 0.027 and the “Change of LD (average change of log-transformed concentration)” value [2] was -0.069. For the same compound, the “Change of MEL (average change of log-transformed concentration)” value [2] was 0.68, the “Change of METH (average change of log-transformed concentration)” value [2] was 0.12 and the “Change of MHPG (average change of log-transformed concentration)” value [2] was -0.16. The “Change of NA-5-HT (average change of log-transformed concentration)” value [2] was 0.071, the “Change of TRP (average change of log-transformed concentration)” value [2] was 0.041 and the “Change of TRPOL (average change of log-transformed concentration)” value [2] was 0.068. For the same compound, the “Change of TYR (average change of log-transformed concentration)” value [2] was 0.14, the “Change of UA (average change of log-transformed concentration)” value [2] was -0.027 and the “Change of VMA (average change of log-transformed concentration)” value [2] was -0.077. The “Change of XAN (average change of log-transformed concentration)” value [2] was -0.14, the “Change of XANTH (average change of log-transformed concentration)” value [2] was 0.0046 and the “Change of 3-OHKY (average change of log-transformed concentration)” value [3] was -0.11. For the same compound, the “Change of 3-OMD (average change of log-transformed concentration)” value [3] was -0.082, the “Change of 4-HBAC (average change of log-transformed concentration)” value [3] was -0.44 and the “Change of 4-HPAC (average change of log-transformed concentration)” value [3] was 0.18. For the same compound, the “Change of 4-HPLA (average change of log-transformed concentration)” value [3] was 0.055, the “Change of 5-HIAA (average change of log-transformed concentration)” value [3] was -0.19 and the “Change of 5-HT (average change of log-transformed concentration)” value [3] was -0.72. For the same compound, the “Change of 5-HTP (average change of log-transformed concentration)” value [3] was -0.14, the “Change of 5-MTPOL (average change of log-transformed concentration)” value [3] was -0.027 and the “Change of 7-MXAN (average change of log-transformed concentration)” value [3] was 0.16. For the same compound, the “Change of ATOCO (average change of log-transformed concentration)” value [3] was 0.084, the “Change of CYS (average change of log-transformed concentration)” value [3] was -0.056 and the “Change of DIOHMAL (average change of log-transformed concentration)” value [3] was 0.17. For the same compound, the “Change of DOPAC (average change of log-transformed concentration)” value [3] was -0.18, the “Change of DTOCO (average change of log-transformed concentration)” value [3] was 0.024 and the “Change of GR (average change of log-transformed concentration)” value [3] was -0.47. For the same compound, the “Change of GRMP (average change of log-transformed concentration)” value [3] was -0.012, the “Change of GSH (average change of log-transformed concentration)” value [3] was -0.0084 and the “Change of HGA (average change of log-transformed concentration)” value [3] was 0.34. For the same compound, the “Change of HVA (average change of log-transformed concentration)” value [3] was 0.0025, the “Change of HX (average change of log-transformed concentration)” value [3] was -0.066 and the “Change of KYN (average change of log-transformed concentration)” value [3] was -0.11. The “Change of LD (average change of log-transformed concentration)” value [3] was 0.053, the “Change of MEL (average change of log-transformed concentration)” value [3] was 0.3 and the “Change of METH (average change of log-transformed concentration)” value [3] was 0.16. The “Change of MHPG (average change of log-transformed concentration)” value [3] was -0.072, the “Change of NA-5-HT (average change of log-transformed concentration)” value [3] was 0.027 and the “Change of TRP (average change of log-transformed concentration)” value [3] was -0.022. The “Change of TRPOL (average change of log-transformed concentration)” value [3] was 0.0024, the “Change of TYR (average change of log-transformed concentration)” value [3] was -0.073 and the “Change of UA (average change of log-transformed concentration)” value [3] was -0.095. The “Change of VMA (average change of log-transformed concentration)” value [3] was 0.12, the “Change of XAN (average change of log-transformed concentration)” value [3] was -0.18 and the “Change of XANTH (average change of log-transformed concentration)” value [3] was 0.11. The “Change in 5-HT levels” value [4] was “significantly reduced”, the “Change in 5-MTPOL levels” value [4] was “not significantly changed” and the “Change in DIOHMAL levels” value [4] was “significantly increased”. For the same compound, the “Change in MEL levels” value [4] was “not significantly changed”, the “Change in HGA levels” value [5] was “Significant increases” and the “Change in LD levels” value [5] was “Significant increases”. The “Change in 4-HPAC levels” value [6] was “significantly increased”, the “Change in 5-HT levels” value [6] was “significant decrease” and the “Change in 5-MTPOL levels” value [6] was “significant increases”. The “Change in DIOHMAL levels” value [6] was “significantly increased”, the “Change in MEL levels” value [6] was “significant increases” and the “Change 3-OHKY” value [7] was 0.044. For the same compound, the “Change 3-OMD” value [7] was 0.079, the “Change 4-HBAC” value [7] was 0.12 and the “Change 4-HPAC” value [7] was 0.26. The “Change 4-HPLA” value [7] was 0.13 and the “Change 5-HIAA” value [7] was −0.06.
